Here are results for one compound from patent US6617336B1, “2-arylquinoline derivatives, preparation and therapeutic use thereof” (Sanofi-Synthelabo, priority 1999, dated 2003).

The melting point is the temperature, or range, at which the solid turns liquid.

The compound `Cc1cc2cccc([C@H](CO)N3CCCC[C@H]3C)c2nc1-c1ccccc1.Cl` returned a melting point of 68 °C.
